Key:
[1] = Anticlotting activity in human factor 7 immunodepleted plasma mixed with normal pooled plasma from different species assessed compound causing 2 times increase in prothrombin time after 3 mins relative to baseline control; format: functional
[2] = Permeability of the compound at pH 5.5 by PAMPA assay; format: ADME; conditions: read-out: permeability
[3] = Permeability of the compound at pH 7.4 by PAMPA assay; format: ADME; conditions: read-out: permeability
[4] = Clearance in iv dosed dog; format: ADME, organism-based, Canis lupus familiaris; conditions: in vivo
Coagulation factor X = Coagulation factor X (Homo sapiens, UniProt P00742); assay: Inhibition of factor 10a (unknown origin) at 25 degC by chromogenic substrate assay
[5] = biological target: T1, Coagulation factor VII/tissue factor (Homo sapiens, UniProt P08709); assay: Inhibition of recombinant human TF-factor 7a using factor 10 as substrate at 37 degC; format: protein-complex assay
[6] = Oral bioavailability in iv dosed dog; format: ADME, organism-based, Canis lupus familiaris; conditions: in vivo
[7] = Inhibition of trypsin (unknown origin) at 25 degC by chromogenic substrate assay; set-up: species or system Homo sapiens
Kallikrein-1 = Kallikrein-1 (Homo sapiens, UniProt P06870); assay: Inhibition of human kallikrein1 at 37 degC by chromogenic substrate assay
[8] = Fraction unbound in human plasma; format: ADME, cell-free
Prothrombin = Prothrombin (Homo sapiens, UniProt P00734); assay: Inhibition of thrombin (unknown origin) at 25 degC by chromogenic substrate assay
[9] = Half-life in human liver microsomes; format: ADME
[10] = biological target: Vitamin K-dependent protein C (Homo sapiens, UniProt P04070); assay: Inhibition of activated protein C (unknown origin) at 37 degC by chromogenic substrate assay
[11] = Clearance in po or iv dosed Beagle dog by LC-MS/MS analysis; format: ADME, organism-based, Canis lupus familiaris; conditions: in vivo
[12] = Half life in Beagle dog liver microsomes at 3 uM by LC-MS/MS analysis; format: ADME, Canis lupus familiaris
[13] = Oral bioavailability in Beagle dog; format: ADME, organism-based, Canis lupus familiaris; conditions: in vivo
[14] = Metabolic stability in human liver microsomes assessed as compound remaining after 10 mins; format: ADME; conditions: read-out: Stability
Homo sapiens [15] = species: Homo sapiens; assay: Selectivity ratio of Ki for factor 9a (unknown origin) to Ki for human factor 7a ([…] residues)
Homo sapiens [16] = species: Homo sapiens; assay: Selectivity ratio of Ki for factor 10a (unknown origin) to Ki for human factor 7a ([…] residues)
Homo sapiens [17] = species: Homo sapiens; assay: Selectivity ratio of Ki for thrombin (unknown origin) to Ki for human factor 7a ([…] residues)
Homo sapiens [18] = species: Homo sapiens; assay: Selectivity ratio of Ki for trypsin (unknown origin) to Ki for human factor 7a ([…] residues)
Homo sapiens [19] = species: Homo sapiens; assay: Selectivity ratio of Ki for human kallikrein1 to Ki for recombinant human TF-factor 7a
[20] = Permeability from basolateral to apical side in human Caco2 cells; format: ADME, cell-based; conditions: Caco-2, read-out: permeability
[21] = Permeability from apical to basolateral side in human Caco2 cells; format: ADME, cell-based; conditions: Caco-2, read-out: permeability
[22] = biological target: T1, Coagulation factor VII/tissue factor; assay: Inhibition of human TF-factor 7a ([…] residues) using factor 10 as substrate after 60 mins; format: protein-complex assay

Structure (SMILES) | EC [1] [µM] | Papp [2] [×10⁻⁶ cm/s] | Papp [3] [×10⁻⁶ cm/s] | clearance [4] [mL/min/kg] | Ki (Coagulation factor X) [nM] | Ki [5] [nM] | Ki [7] [µM] | Ki (Kallikrein-1) [nM] | fraction unbound [8] | Ki (Prothrombin) [µM] | half-life [9] [min] | Ki [10] [nM] | further results
Cc1cc2ccc1[C@@H](C)COC(=O)Nc1ccc(C3(c4nnn[nH]4)CC3)c(c1)CN(C)C(=O)[C@@H]2Nc1ccc2c(N)ncc(F)c2c1 | 10 | 11.9 | 4.8 | 7 | 1050 | 0.72 | 4.9 | 960 | 0.018 | > 13.3 | 114 | 175 | bioavailability [6]: 2%
Cc1cc2ccc1[C@@H](C)COC(=O)Nc1ccc(C3(C(=O)O)CCCCC3)c(c1)CN(C)C(=O)[C@@H]2Nc1ccc2c(N)ncc(F)c2c1 | 18 | 80.5 | 8 |  | 900 | 0.06 | 0.505 | 1200 | 0.017 | > 13.3 | 94 | 155 | 
Cc1cc2ccc1[C@@H](C)COC(=O)Nc1ccc(S(=O)(=O)C3CC3)c(c1)CN(C)C(=O)[C@@H]2Nc1ccc2c(N)nccc2c1 | 1.1 |  |  |  |  |  |  |  |  |  |  |  | clearance [11]: 29 mL/min/kg; half-life at 3 µM [12]: 106 min; bioavailability [13]: 1%
Cc1cc2ccc1[C@@H](C)COC(=O)Nc1ccc(C3(C(=O)O)CCCC3)c(c1)CN(C)C(=O)[C@@H]2Nc1ccc2c(N)ncc(F)c2c1 | 6.6 | 21.1 | 4 | 54 | 1800 | 0.22 | 2.2 | 1600 | 0.028 | > 13.3 |  | 340 | 
Cc1cc2ccc1[C@@H](C)COC(=O)Nc1ccc(C3(C(=O)O)CCC3)c(c1)CN(C)C(=O)[C@@H]2Nc1ccc2c(N)ncc(F)c2c1 | 7.9 | 20.9 | 3.4 | 56 | 850 | 0.14 | 3.4 | 1150 | 0.033 | > 13.3 | > 120 | 725 | 
Cc1cc2ccc1[C@@H](C)COC(=O)Nc1ccc(C3(C(=O)O)CC3)c(c1)CN(C)C(=O)[C@@H]2Nc1ccc2c(N)ncc(F)c2c1 | 4.7 | 33.7 | 11.7 |  | 6650 |  | 2.75 |  | 0.044 | > 13.3 |  | 70 | remaining at 10 min [14]: 100%
CCS(=O)(=O)c1ccc2cc1CNC(=O)[C@H](Nc1ccc3c(N)nccc3c1)c1ccc(c(C)c1)CCOC(=O)N2 | 1.2 |  |  |  |  |  |  |  |  |  |  |  | Ratio Ki (Homo sapiens [15]): > 500; Ratio Ki (Homo sapiens [16]): > 500; Ratio Ki (Homo sapiens [17]): > 500; Ratio Ki (Homo sapiens [18]): > 500
Cc1cc2ccc1[C@@H](C)COC(=O)Nc1ccc(C3CC3)c(c1)CN(C)C(=O)[C@@H]2Nc1ccc2c(N)ncc(F)c2c1 | 32 |  |  |  | 3000 | 18 | > 6.2 | 15 |  | 18 | 23 | 220 | Ratio Ki (Homo sapiens [19]): 0.8
Cc1cc2ccc1[C@@H](C)COC(=O)Nc1ccc(C3(C(=O)O)CCOCC3)c(c1)CN(C)C(=O)[C@@H]2Nc1ccc2c(N)ncc(F)c2c1 | 11 | 2.6 | 2.1 |  | 1400 | 4.4 | > 6.2 | 5300 | 0.058 | > 13.3 | > 120 | 1600 | 
Cc1cc2ccc1[C@@H](C)COC(=O)Nc1ccc(C3CC3)c(c1)CN(C)C(=O)[C@@H]2Nc1ccc2c(N)nccc2c1 |  |  |  |  |  |  |  |  |  |  |  |  | clearance [11]: 2.2 mL/min/kg; Papp B→A [20]: 9.3 ×10⁻⁶ cm/s; Papp A→B [21]: < 1.5 ×10⁻⁶ cm/s; half-life at 3 µM [12]: 200 min; bioavailability [13]: 12%; Ki [22]: 2 nM
